How the values were obtained:
Cathepsin D (CatD) = Cathepsin D (CatD) (Homo sapiens (Human), UniProt P07339); assay: CatD assay; format: biochemical; conditions: read-out: IC50 IP (μM) CatD
BACE2 = BACE2 (Homo sapiens (Human), UniProt Q9Y5Z0); assay: In vitro enzymatic BACE2 FRET assay; format: biochemical; conditions: read-out: IC50 IP (μM) BACE2 Enzyme
Source text: (§1) In Vitro Enzymatic BACE1 and BACE2 FRET (Fluorescence Resonance Energy Transfer) Assays (Enzyme Assay Data in Table 1)

BACE1 [1] = molecular target: T1, BACE1 (Homo sapiens (Human), UniProt P56817); assay: BACE1 cell assay; format: cell-based
Target sequence in this assay (P56817 46-501, species assumed): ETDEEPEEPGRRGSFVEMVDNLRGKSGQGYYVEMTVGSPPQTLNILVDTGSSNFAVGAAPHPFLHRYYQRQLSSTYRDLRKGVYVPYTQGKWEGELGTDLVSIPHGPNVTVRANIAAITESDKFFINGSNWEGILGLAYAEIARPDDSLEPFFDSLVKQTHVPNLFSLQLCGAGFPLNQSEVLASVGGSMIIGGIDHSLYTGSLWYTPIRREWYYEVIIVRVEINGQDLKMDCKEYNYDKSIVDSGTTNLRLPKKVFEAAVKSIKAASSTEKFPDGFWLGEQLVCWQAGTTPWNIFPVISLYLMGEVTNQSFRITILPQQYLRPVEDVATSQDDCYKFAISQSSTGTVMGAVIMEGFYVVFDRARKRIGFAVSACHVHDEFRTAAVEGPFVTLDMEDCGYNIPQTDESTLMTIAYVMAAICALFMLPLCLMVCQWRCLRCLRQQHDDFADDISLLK

BACE1 [2] = molecular target: T1, BACE1; assay: In vitro enzymatic BACE1 FRET assay; format: biochemical; conditions: read-out: IC50 IP (μM) BACE1 Enzyme
Target sequence in this assay (P56817 46-501): as the sequence (P56817 46-501, species assumed) above
Source text: as §1

[3] = read-out: IC50 IP (μM) BACE1 Cell

Cathepsin D (CatD), sequence (P07339 65-412, species assumed): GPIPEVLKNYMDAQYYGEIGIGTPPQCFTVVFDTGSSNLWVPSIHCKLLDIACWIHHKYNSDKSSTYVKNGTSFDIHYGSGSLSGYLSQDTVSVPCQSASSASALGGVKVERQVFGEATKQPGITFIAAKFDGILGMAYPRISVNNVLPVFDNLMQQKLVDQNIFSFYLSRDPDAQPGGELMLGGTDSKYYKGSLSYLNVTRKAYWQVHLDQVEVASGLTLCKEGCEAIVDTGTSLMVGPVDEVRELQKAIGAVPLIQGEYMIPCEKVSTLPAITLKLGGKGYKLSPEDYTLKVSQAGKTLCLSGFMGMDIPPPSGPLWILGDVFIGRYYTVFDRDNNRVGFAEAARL
BACE2, sequence (Q9Y5Z0 63-518): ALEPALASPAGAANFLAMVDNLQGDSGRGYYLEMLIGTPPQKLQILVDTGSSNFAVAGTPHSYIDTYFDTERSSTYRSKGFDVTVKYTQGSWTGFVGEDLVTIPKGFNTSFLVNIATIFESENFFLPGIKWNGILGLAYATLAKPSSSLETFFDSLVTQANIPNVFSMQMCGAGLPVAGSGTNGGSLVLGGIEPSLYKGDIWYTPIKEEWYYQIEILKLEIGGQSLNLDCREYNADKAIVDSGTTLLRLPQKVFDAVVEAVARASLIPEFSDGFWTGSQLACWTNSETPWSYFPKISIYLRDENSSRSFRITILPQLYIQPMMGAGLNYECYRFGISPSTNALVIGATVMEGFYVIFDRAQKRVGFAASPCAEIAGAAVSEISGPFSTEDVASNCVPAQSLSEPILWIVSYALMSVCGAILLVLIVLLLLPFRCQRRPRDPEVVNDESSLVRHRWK

C[C@]1(c2cc(/C=C(\F)c3cnc(Cl)cn3)ccc2F)N=C(N)S[C@@]2(S(C)(=O)=O)C[C@H]21 [Example 230, (1R,5S,6S)-5-(5-((Z)-2-(5-chloropyrazin-2-yl)-2-fluorovinyl)-2-fluorophenyl)-5-methyl-1-(methylsulfonyl)-2-thia-4-azabicyclo[4.1.0]hept-3-en-3-amine]
IC50 (Cathepsin D (CatD)): 121 µM
IC50 (BACE2): 0.011 µM
IC50 (BACE1 [1]; [3]): 0.231 µM
IC50 (BACE1 [2]): 0.0057 µM

C[C@H]1CN(C(=O)[C@]23C[C@H]2[C@@](C)(c2cc(/C=C(\F)c4ccc(C#N)cn4)ccc2F)N=C(N)S3)[C@@H](C)CO1 [Example 329, 6-((Z)-2-(3-((1S,5S,6S)-3-amino-1-((2S,5S)-2,5-dimethylmorpholine-4-carbonyl)-5-methyl-2-thia-4-azabicyclo[4.1.0]hept-3-en-5-yl)-4-fluorophenyl)-1-fluorovinyl)nicotinonitrile]
IC50 (Cathepsin D (CatD)): 73.9 µM
IC50 (BACE2): 0.124 µM
IC50 (BACE1 [1]; [3]): 0.0035 µM
IC50 (BACE1 [2]): 0.0045 µM

COC(=O)[C@]12C[C@H]1[C@@](C)(c1cc(/C=C(\F)c3ccc(Cl)cn3)cnc1F)N=C(N)S2 [Example 176, (1S,5S,6S)-methyl 3-amino-5-(5-((Z)-2-(5-chloropyridin-2-yl)-2-fluorovinyl)-2-fluoropyridin-3-yl)-5-methyl-2-thia-4-azabicyclo[4.1.0]hept-3-ene-1-carboxylate]
IC50 (Cathepsin D (CatD)): > 400 µM
IC50 (BACE2): 0.214 µM
IC50 (BACE1 [1]; [3]): 1.76 µM
IC50 (BACE1 [2]): 0.142 µM

CC1COC([C@]23C[C@H]2[C@@](C)(c2cc(/C=C(\F)c4ccc(C#N)cn4)ccc2F)N=C(N)S3)=N1 (stereo partly drawn) [Example 342, 6-((Z)-2-(3-((1S,5S,6S)-3-amino-5-methyl-1-(4-methyl-4,5-dihydrooxazol-2-yl)-2-thia-4-azabicyclo[4.1.0]hept-3-en-5-yl)-4-fluorophenyl)-1-fluorovinyl)nicotinonitrile]
IC50 (Cathepsin D (CatD)): 400 µM
IC50 (BACE2): 0.7 µM
IC50 (BACE1 [1]; [3]): 0.0073 µM
IC50 (BACE1 [2]): 0.122 µM

C[C@]1(c2cc(/C=C(\F)c3ccc(C#N)cn3)ccc2F)N=C(N)S[C@@]2(C(N)=O)C[C@H]21 [Example 243, (1S,5S,6S)-3-amino-5-(5-((Z)-2-(5-cyanopyridin-2-yl)-2-fluorovinyl)-2-fluorophenyl)-5-methyl-2-thia-4-azabicyclo[4.1.0]hept-3-ene-1-carboxamide]
IC50 (Cathepsin D (CatD)): 412 µM
IC50 (BACE2): 0.043 µM
IC50 (BACE1 [1]): 0.0022 µM
IC50 (BACE1 [2]): 0.003 µM

CC1(C)CC2CC(C)(CN2C(=O)[C@]23C[C@H]2[C@@](C)(c2cc(/C=C(\F)c4ccc(C#N)cn4)ccc2F)N=C(N)S3)C1 (stereo partly drawn) [Example 136, 6-((Z)-2-(3-((1S,5S,6S)-3-amino-5-methyl-1-(1,3,3-trimethyl-6-azabicyclo[3.2.1]octane-6-carbonyl)-2-thia-4-azabicyclo[4.1.0]hept-3-en-5-yl)-4-fluorophenyl)-1-fluorovinyl)nicotinonitrile]
IC50 (Cathepsin D (CatD)): 4.18 µM
IC50 (BACE2): 0.0363 µM
IC50 (BACE1 [1]; [3]): 0.0154 µM
IC50 (BACE1 [2]): 0.00582 µM

COC(CNC(=O)[C@]12C[C@H]1[C@@](C)(c1cc(/C=C(\F)c3ccc(C#N)cn3)ccc1F)N=C(N)S2)OC [Example 341, (1S,5S,6S)-3-amino-5-(5-((Z)-2-(5-cyanopyridin-2-yl)-2-fluorovinyl)-2-fluorophenyl)-N-(2,2-dimethoxyethyl)-5-methyl-2-thia-4-azabicyclo[4.1.0]hept-3-ene-1-carboxamide]
IC50 (Cathepsin D (CatD)): 6.8 µM
IC50 (BACE2): 0.024 µM
IC50 (BACE1 [1]; [3]): 0.0011 µM
IC50 (BACE1 [2]): 0.003 µM

CN(C)C(=O)[C@]12C[C@H]1[C@@](C)(c1cc(/C=C(\F)c3cnc(OCC4CC4(F)F)cn3)ccc1F)N=C(N)S2 (stereo partly drawn) [Example 215, (1S,5S,6S)-3-amino-5-(5-((Z)-2-(5-((2,2-difluorocyclopropyl)methoxy)pyrazin-2-yl)-2-fluorovinyl)-2-fluorophenyl)-N,N,5-trimethyl-2-thia-4-azabicyclo[4.1.0]hept-3-ene-1-carboxamide]
IC50 (Cathepsin D (CatD)): 121 µM
IC50 (BACE2): 0.051 µM
IC50 (BACE1 [1]; [3]): 0.262 µM
IC50 (BACE1 [2]): 0.037 µM

C[C@]1(c2cc(/C=C(\F)c3ccc(C#N)cn3)ccc2F)N=C(N)S[C@@]2(C(=O)N3CCNC(=O)CC3)C[C@H]21 [Example 142, 6-((Z)-2-(3-((1S,5S,6S)-3-amino-5-methyl-1-(5-oxo-1,4-diazepane-1-carbonyl)-2-thia-4-azabicyclo[4.1.0]hept-3-en-5-yl)-4-fluorophenyl)-1-fluorovinyl)nicotinonitrile]
IC50 (Cathepsin D (CatD)): 400 µM
IC50 (BACE2): 0.0173 µM
IC50 (BACE1 [1]; [3]): 0.00219 µM
IC50 (BACE1 [2]): 0.00178 µM

C[C@]1(c2cc(/C=C(\F)c3ccc(C#N)cn3)cnc2F)N=C(N)S[C@@]2(C(=O)NCC(F)F)C[C@H]21 [Example 281, (1S,5S,6S)-3-amino-5-(5-((Z)-2-(5-cyanopyridin-2-yl)-2-fluorovinyl)-2-fluoropyridin-3-yl)-N-(2,2-difluoroethyl)-5-methyl-2-thia-4-azabicyclo[4.1.0]hept-3-ene-1-carboxamide]
IC50 (Cathepsin D (CatD)): 269 µM
IC50 (BACE2): 0.164 µM
IC50 (BACE1 [1]): 0.0542 µM
IC50 (BACE1 [2]): 0.0214 µM

CN(C)C(=O)[C@]12C[C@H]1[C@@](C)(c1cc(/C=C(\F)c3ccc(C#N)cc3)ccc1F)N=C(N)S2 [Example 168, (1S,5S,6S)-3-amino-5-(5-((Z)-2-(4-cyanophenyl)-2-fluorovinyl)-2-fluorophenyl)-N,N,5-trimethyl-2-thia-4-azabicyclo[4.1.0]hept-3-ene-1-carboxamide]
IC50 (Cathepsin D (CatD)): 442 µM
IC50 (BACE2): 0.104 µM
IC50 (BACE1 [1]; [3]): 0.0368 µM
IC50 (BACE1 [2]): 0.00496 µM

C#CCOc1cnc(/C(F)=C/c2ccc(F)c([C@@]3(C)N=C(N)S[C@@]4(C#N)C[C@H]43)c2)cn1 [Example 240, (1S,5S,6S)-3-amino-5-(2-fluoro-5-((Z)-2-fluoro-2-(5-(prop-2-yn-1-yloxy)pyrazin-2-yl)vinyl)phenyl)-5-methyl-2-thia-4-azabicyclo[4.1.0]hept-3-ene-1-carbonitrile]
IC50 (Cathepsin D (CatD)): 124 µM
IC50 (BACE2): 0.081 µM
IC50 (BACE1 [1]; [3]): 0.0175 µM
IC50 (BACE1 [2]): 0.0012 µM

COC[C@H](C)Oc1cnc(/C(F)=C/c2ccc(F)c([C@@]3(C)N=C(N)S[C@@]4(C(=O)N(C)C)C[C@H]43)c2)cn1 [Example 214, (1S,5S,6S)-3-amino-5-(2-fluoro-5-((Z)-2-fluoro-2-(5-(((S)-1-methoxypropan-2-yl)oxy)pyrazin-2-yl)vinyl)phenyl)-N,N,5-trimethyl-2-thia-4-azabicyclo[4.1.0]hept-3-ene-1-carboxamide]
IC50 (Cathepsin D (CatD)): 134 µM
IC50 (BACE2): 0.072 µM
IC50 (BACE1 [1]; [3]): 0.024 µM
IC50 (BACE1 [2]): 0.014 µM

C[C@H]1CCN1C(=O)[C@]12C[C@H]1[C@@](C)(c1cc(/C=C(\F)c3ccc(Cl)cn3)ccc1F)N=C(N)S2 (single isomer, unassigned) [Example 119]
IC50 (Cathepsin D (CatD)): 42.3 µM
IC50 (BACE2): 0.00752 µM
IC50 (BACE1 [1]; [3]): 0.00406 µM
IC50 (BACE1 [2]): 0.0034 µM

C[C@]1(c2cc(/C=C(\F)c3ccc(C#N)cn3)ccc2F)N=C(N)S[C@@]2(C(=O)N3CC4CCC(C3)O4)C[C@H]21 [Example 319]
IC50 (Cathepsin D (CatD)): 318 µM
IC50 (BACE2): 0.097 µM
IC50 (BACE1 [1]; [3]): 0.0017 µM
IC50 (BACE1 [2]): 0.0025 µM

CNC(=O)[C@]12C[C@H]1[C@@](C)(c1cc(/C=C(\F)c3cnc(OCc4cnco4)cn3)ccc1F)N=C(N)S2 [Example 226, (1S,5S,6S)-3-amino-5-(2-fluoro-5-((Z)-2-fluoro-2-(5-(oxazol-5-ylmethoxy)pyrazin-2-yl)vinyl)phenyl)-N,5-dimethyl-2-thia-4-azabicyclo[4.1.0]hept-3-ene-1-carboxamide]
IC50 (Cathepsin D (CatD)): 18.5 µM
IC50 (BACE2): 0.285 µM
IC50 (BACE1 [1]): 0.608 µM
IC50 (BACE1 [2]): 0.126 µM

CN(C)C(=O)[C@]12C[C@H]1[C@@](C)(c1cc(/C=C(\F)c3ccc(C#CC4CC4)cn3)ccc1F)N=C(N)S2 [Example 109, (1S,5S,6S)-3-amino-5-(5-((Z)-2-(5-(cyclopropylethynyl)pyridin-2-yl)-2-fluorovinyl)-2-fluorophenyl)-N,N,5-trimethyl-2-thia-4-azabicyclo[4.1.0]hept-3-ene-1-carboxamide]
IC50 (Cathepsin D (CatD)): 138 µM
IC50 (BACE2): 0.0615 µM
IC50 (BACE1 [1]; [3]): 0.223 µM
IC50 (BACE1 [2]): 0.00849 µM

C[C@]1(c2cc(/C=C(\F)c3ccc(Cl)cn3)ccc2F)N=C(N)S[C@@]2(C(N)=O)C[C@H]21 [Example 242, (1S,5S,6S)-3-amino-5-(5-((Z)-2-(5-chloropyridin-2-yl)-2-fluorovinyl)-2-fluorophenyl)-5-methyl-2-thia-4-azabicyclo[4.1.0]hept-3-ene-1-carboxamide]
IC50 (Cathepsin D (CatD)): 205 µM
IC50 (BACE2): 0.034 µM
IC50 (BACE1 [1]): 0.0181 µM
IC50 (BACE1 [2]): 0.0164 µM

CN(C)C(=O)[C@]12C[C@H]1[C@@](C)(c1cc(/C=C(\F)c3cn4cc(C#N)ccc4n3)ccc1F)N=C(N)S2 [Example 246, (1S,5S,6S)-3-amino-5-(5-((Z)-2-(6-cyanoimidazo[1,2-a]pyridin-2-yl)-2-fluorovinyl)-2-fluorophenyl)-N,N,5-trimethyl-2-thia-4-azabicyclo[4.1.0]hept-3-ene-1-carboxamide]
IC50 (Cathepsin D (CatD)): 53.1 µM
IC50 (BACE2): 0.39 µM
IC50 (BACE1 [1]; [3]): 0.05 µM
IC50 (BACE1 [2]): 0.171 µM

Cc1cc(COc2cnc(/C(F)=C/c3ccc(F)c([C@@]4(C)N=C(N)S[C@@]5(C(=O)N(C)C)C[C@H]54)c3)cn2)on1 [Example 218, (1S,5S,6S)-3-amino-5-(2-fluoro-5-((Z)-2-fluoro-2-(5-((3-methylisoxazol-5-yl)methoxy)pyrazin-2-yl)vinyl)phenyl)-N,N,5-trimethyl-2-thia-4-azabicyclo[4.1.0]hept-3-ene-1-carboxamide]
IC50 (Cathepsin D (CatD)): 156 µM
IC50 (BACE2): 0.033 µM
IC50 (BACE1 [1]): 0.04 µM
IC50 (BACE1 [2]): 0.01 µM

CN(C)C(=O)[C@]12C[C@H]1[C@@](C)(c1cc(/C=C(\F)c3cnc(OCC4COC4)cn3)ccc1F)N=C(N)S2 [Example 212, (1S,5S,6S)-3-amino-5-(2-fluoro-5-((Z)-2-fluoro-2-(5-(oxetan-3-ylmethoxy)pyrazin-2-yl)vinyl)phenyl)-N,N,5-trimethyl-2-thia-4-azabicyclo[4.1.0]hept-3-ene-1-carboxamide]
IC50 (Cathepsin D (CatD)): 202 µM
IC50 (BACE2): 0.077 µM
IC50 (BACE1 [1]; [3]): 0.065 µM
IC50 (BACE1 [2]): 0.076 µM

Source: patent publication US10246429B2, “Vinyl fluoride cyclopropyl fused thiazin-2-amine compounds as beta-secretase inhibitors and methods of use” (AMGEN INC., priority 2015, dated 2019)
